Laboratory results reported in US11993598B2, “Compounds for inhibiting EGFR kinase, preparation methods and uses thereof” (WIGEN BIOMEDICINE TECHNOLOGY (SHANGHAI) CO., LTD., priority 2019, dated 2024).

Test system: PC9 cells expressing luciferase
Test: In vivo orthotopic brain PC9 xenograft mouse model
Conditions: oral
Description: Assay 4. In vivo orthotopic brain PC9 xenograft mouse model
3×10^5 PC9 cells expressing luciferase were injected to the mouse brain. Mice were randomized based on brain flurorescence intensity and body weight, and were orally administered vehicle or compound 1. Survival and body weights were monitored every day and mice with more than 20% body weight loss were sacrificed.

Measured: Mice Survival Rate (%)

C=CC(=O)Nc1cc(Nc2nccc(-n3c(=O)n4c5c(cc(F)cc53)CCC4)n2)c(OC)cc1N(C)CCN(C)C [Compound 1, N-(2-((2-(dimethylamino)ethyl)(methyl)amino)-5-((4-(8-fluoro-2-oxo-5,6-dihydro-4H-imidazo[4,5,1-ij]quinolin-1(2H)-yl)pyrimidin-2-yl)amino)-4-methoxyphenyl)acrylamide]
100%: 30 mg/kg QD, Day 16 | 30 mg/kg QD, Day 17 | 30 mg/kg QD, Day 18 | 30 mg/kg QD, Day 22 | 30 mg/kg QD, Day 24 | 30 mg/kg QD, Day 26 | 30 mg/kg QD, Day 28 | 60 mg/kg BID, Day 16 | 60 mg/kg BID, Day 17 | 60 mg/kg BID, Day 18 | 60 mg/kg BID, Day 22 | 60 mg/kg BID, Day 24 | 60 mg/kg BID, Day 26 | 60 mg/kg BID, Day 28 | 60 mg/kg QD, Day 16 | 60 mg/kg QD, Day 17 | 60 mg/kg QD, Day 18 | 60 mg/kg QD, Day 22 | 60 mg/kg QD, Day 24 | 60 mg/kg QD, Day 26 | 60 mg/kg QD, Day 28
